PubChem BioAssay AID1963971 (Molecular Pharmacology Branch, DTP, NCI, 2024)

System: 953936-095-R-J2-PDC spheroids with HUVEC/MSC, viability
Assay: Anticancer human tumor 953936-095-R-J2-PDC patient-derived cervical squamous cell carcinoma cell line growth inhibition [PI3K]
Conditions: for IC50: curve of first compound; for viability, T/C: stronger effect = lower value
Method in brief: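 Spheroid viability read-out. Co-cultures contained the tumor line plus HUVEC and human MSCs. Each agent was paired with a PI3K inhibitor (inavolisib, alpelisib, duvelisib, copanlisib) across half-log dilutions starting at clinical Cmax, or at 10 microM when Cmax was unknown.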

[1] = second compound 0.0316 µM, first compound 0.0316 µM
[2] = second compound 0.0316 µM, first compound 0.1 µM
[3] = second compound 0.0316 µM, first compound 0.316 µM
[4] = second compound 0.0316 µM, first compound 1 µM
[5] = second compound 0.0316 µM, first compound 3.16 µM
[6] = second compound 0.0316 µM, first compound 10 µM
[7] = second compound 0.1 µM, first compound 0.0316 µM
[8] = second compound 0.1 µM, first compound 0.1 µM
[9] = second compound 0.1 µM, first compound 0.316 µM
[10] = second compound 0.1 µM, first compound 1 µM
[11] = second compound 0.1 µM, first compound 3.16 µM
[12] = second compound 0.1 µM, first compound 10 µM
[13] = second compound 0.316 µM, first compound 0.0316 µM
[14] = second compound 0.316 µM, first compound 0.1 µM
[15] = second compound 0.316 µM, first compound 0.316 µM
[16] = second compound 0.316 µM, first compound 1 µM
[17] = second compound 0.316 µM, first compound 3.16 µM
[18] = second compound 0.316 µM, first compound 10 µM
[19] = second compound 1 µM, first compound 0.0316 µM
[20] = second compound 1 µM, first compound 0.1 µM
[21] = second compound 1 µM, first compound 0.316 µM
[22] = second compound 1 µM, first compound 1 µM
[23] = second compound 1 µM, first compound 3.16 µM
[24] = second compound 1 µM, first compound 10 µM
[25] = second compound 3.16 µM, first compound 0.0316 µM
[26] = second compound 3.16 µM, first compound 0.1 µM
[27] = second compound 3.16 µM, first compound 0.316 µM
[28] = second compound 3.16 µM, first compound 1 µM
[29] = second compound 3.16 µM, first compound 3.16 µM
[30] = second compound 3.16 µM, first compound 10 µM
[31] = second compound 10 µM, first compound 0.0316 µM
[32] = second compound 10 µM, first compound 0.1 µM
[33] = second compound 10 µM, first compound 0.316 µM
[34] = second compound 10 µM, first compound 1 µM
[35] = second compound 10 µM, first compound 3.16 µM
[36] = second compound 10 µM, first compound 10 µM
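Also: spheroids exposed to compounds for seven days before read-out.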

Compound: CC(C)NCC(C(=O)N1CCN(c2ncnc3c2C(C)CC3O)CC1)c1ccc(Cl)cc1 (stereo unspecified) + Cc1nc(NC(=O)N2CCCC2C(N)=O)sc1-c1ccnc(C(C)(C)C(F)(F)F)c1
- IC50 (second compound 0.0316 µM): 825 nM
- IC50 (second compound 0.1 µM): 709 nM
- IC50 (second compound 0.316 µM): 463 nM
- IC50 (second compound 1 µM): < 31.6 nM
- IC50 (second compound 3.16 µM): < 31.6 nM
- IC50 (second compound 10 µM): < 31.6 nM
- viability, T/C [1]: 88.8%
- viability, T/C [2]: 89.2%
- viability, T/C [3]: 75.7%
- viability, T/C [4]: 44.1%
- viability, T/C [5]: 23.3%
- viability, T/C [6]: 14.3%
- viability, T/C [7]: 82.6%
- viability, T/C [8]: 76.7%
- viability, T/C [9]: 67.2%
- viability, T/C [10]: 42.4%
- viability, T/C [11]: 22.4%
- viability, T/C [12]: 12.2%
- viability, T/C [13]: 64.6%
- viability, T/C [14]: 62.4%
- viability, T/C [15]: 55.6%
- viability, T/C [16]: 38.2%
- viability, T/C [17]: 17.4%
- viability, T/C [18]: 11.6%
- viability, T/C [19]: 48.7%
- viability, T/C [20]: 42.2%
- viability, T/C [21]: 39.3%
- viability, T/C [22]: 28.3%
- viability, T/C [23]: 16.2%
- viability, T/C [24]: 7.67%
- viability, T/C [25]: 27.6%
- viability, T/C [26]: 25.6%
- viability, T/C [27]: 24.5%
- viability, T/C [28]: 18%
- viability, T/C [29]: 11.3%
- viability, T/C [30]: 5.35%
- viability, T/C [31]: 11.6%
- viability, T/C [32]: 11.2%
- viability, T/C [33]: 10.9%
- viability, T/C [34]: 8.17%
- viability, T/C [35]: 5.5%
- viability, T/C [36]: 2.61%

Compound: C[C@@H](NC(=O)c1ncnc(N)c1Cl)c1ncc(C(=O)Nc2cc(C(F)(F)F)c(Cl)cn2)s1 + Cc1nc(NC(=O)N2CCCC2C(N)=O)sc1-c1ccnc(C(C)(C)C(F)(F)F)c1
- IC50 (second compound 0.0316 µM): > 10000 nM
- IC50 (second compound 0.1 µM): > 10000 nM
- IC50 (second compound 0.316 µM): > 10000 nM
- IC50 (second compound 1 µM): 192 nM
- IC50 (second compound 3.16 µM): < 31.6 nM
- IC50 (second compound 10 µM): < 31.6 nM
- viability, T/C [1]: 91.4%
- viability, T/C [2]: 92.8%
- viability, T/C [3]: 101%
- viability, T/C [4]: 97.8%
- viability, T/C [5]: 114%
- viability, T/C [6]: 92.1%
- viability, T/C [7]: 84.7%
- viability, T/C [8]: 86%
- viability, T/C [9]: 87%
- viability, T/C [10]: 89.4%
- viability, T/C [11]: 84.1%
- viability, T/C [12]: 81.2%
- viability, T/C [13]: 66.5%
- viability, T/C [14]: 69.3%
- viability, T/C [15]: 65.1%
- viability, T/C [16]: 72%
- viability, T/C [17]: 67%
- viability, T/C [18]: 71.3%
- viability, T/C [19]: 53.3%
- viability, T/C [20]: 49.1%
- viability, T/C [21]: 47.2%
- viability, T/C [22]: 49.9%
- viability, T/C [23]: 49.5%
- viability, T/C [24]: 45.2%
- viability, T/C [25]: 28.2%
- viability, T/C [26]: 28.7%
- viability, T/C [27]: 27.6%
- viability, T/C [28]: 29%
- viability, T/C [29]: 31%
- viability, T/C [30]: 27.4%
- viability, T/C [31]: 13.3%
- viability, T/C [32]: 14.4%
- viability, T/C [33]: 15%
- viability, T/C [34]: 17%
- viability, T/C [35]: 14.9%
- viability, T/C [36]: 11.6%

Compound: Cn1ncnc1[C@H]1c2n[nH]c(=O)c3cc(F)cc(c23)N[C@@H]1c1ccc(F)cc1 + Cc1nc(NC(=O)N2CCCC2C(N)=O)sc1-c1ccnc(C(C)(C)C(F)(F)F)c1
- IC50 (second compound 0.0316 µM): > 100 nM
- IC50 (second compound 0.1 µM): > 100 nM
- IC50 (second compound 0.316 µM): > 100 nM
- IC50 (second compound 1 µM): < 0.316 nM
- IC50 (second compound 3.16 µM): < 0.316 nM
- IC50 (second compound 10 µM): < 0.316 nM
- viability, T/C (second compound 0.0316 µM, first compound 0.000316 µM): 91.5%
- viability, T/C (second compound 0.0316 µM, first compound 0.001 µM): 94.8%
- viability, T/C (second compound 0.0316 µM, first compound 0.00316 µM): 99.5%
- viability, T/C (second compound 0.0316 µM, first compound 0.01 µM): 90.9%
- viability, T/C [1]: 94.6%
- viability, T/C [2]: 95.7%
- viability, T/C (second compound 0.1 µM, first compound 0.000316 µM): 86.6%
- viability, T/C (second compound 0.1 µM, first compound 0.001 µM): 79.2%
- viability, T/C (second compound 0.1 µM, first compound 0.00316 µM): 83.7%
- viability, T/C (second compound 0.1 µM, first compound 0.01 µM): 80.9%
- viability, T/C [7]: 83.3%
- viability, T/C [8]: 81.5%
- viability, T/C (second compound 0.316 µM, first compound 0.000316 µM): 63.3%
- viability, T/C (second compound 0.316 µM, first compound 0.001 µM): 63.9%
- viability, T/C (second compound 0.316 µM, first compound 0.00316 µM): 62.8%
- viability, T/C (second compound 0.316 µM, first compound 0.01 µM): 62.5%
- viability, T/C [13]: 66.6%
- viability, T/C [14]: 58.2%
- viability, T/C (second compound 1 µM, first compound 0.000316 µM): 45.1%
- viability, T/C (second compound 1 µM, first compound 0.001 µM): 48.6%
- viability, T/C (second compound 1 µM, first compound 0.00316 µM): 44.9%
- viability, T/C (second compound 1 µM, first compound 0.01 µM): 43.8%
- viability, T/C [19]: 43.2%
- viability, T/C [20]: 39.6%
- viability, T/C (second compound 3.16 µM, first compound 0.000316 µM): 27%
- viability, T/C (second compound 3.16 µM, first compound 0.001 µM): 26.2%
- viability, T/C (second compound 3.16 µM, first compound 0.00316 µM): 26.4%
- viability, T/C (second compound 3.16 µM, first compound 0.01 µM): 26.3%
- viability, T/C [25]: 26.5%
- viability, T/C [26]: 25.5%
- viability, T/C (second compound 10 µM, first compound 0.000316 µM): 11.4%
- viability, T/C (second compound 10 µM, first compound 0.001 µM): 10.4%
- viability, T/C (second compound 10 µM, first compound 0.00316 µM): 10.1%
- viability, T/C (second compound 10 µM, first compound 0.01 µM): 11.6%
- viability, T/C [31]: 12.5%
- viability, T/C [32]: 10.9%
